Test results published in patent publication US4242510A, “Cephalosporin compounds and processes for the preparation thereof” (Fujisawa Pharmaceutical Co., Ltd., priority 1976, dated 1980).
In brackets after ≈: the same amount, converted by molar mass.

Key:
Experiment in all cases: In vitro antibacterial activity, two-fold agar-plate dilution method
Assay type in all cases: cell-based
Esherichia coli 327 = conditions: HI-agar, 37° C., 20 hours
Protocol: (§1) In vitro antibacterial activity was determined by the two-fold agar-plate dilution method as described below. One loopful of an overnight culture of each test strain in Trypticase-soy broth (approximately 10^6 viable cells per ml.) was streaked on heat infusion agar (HI-agar) containing graded concentrations of antibiotics, and the minimal inhibitory concentration (MIC) was expressed in terms of μg./ml. after incubation at 37° C. for 20 hours.

Proteus mirabilis 525 = conditions: HI-agar, 37° C., 20 hours
Protocol: as §1

[1] = system: Proteus vulgaris LAM-1025; conditions: LAM1025, HI-agar, 37° C., 20 hours
Protocol: as §1

[2] = system: Pseudmonas aeruginose NCTC-10490; conditions: HI-agar, 37° C., 20 hours
Protocol: as §1

[3] = system: Staphylococcus aureus 209-P JC-1; conditions: HI-agar, 37° C., 20 hours
Protocol: as §1

| Structure (SMILES) | MIC (Esherichia coli 327) | MIC (Proteus mirabilis 525) | MIC [1] | MIC [2] | MIC [3] |
| --- | --- | --- | --- | --- | --- |
| CON=C(C(=O)NC1C(=O)N2C(C(=O)O)=C(COC(N)=O)CS[C@H]12)C1=CSCCO1 (some centres unmarked) [compound 3, 7-[2-(2,3-dihydro-1,4-oxathiin-6-yl)-2-methoxyiminoacetamido]-3-carbamoyloxymethyl-3-cephem-4-carboxylic acid] | 0.78 µg/mL (≈ 1.7 µM) | 0.78 µg/mL (≈ 1.7 µM) | 100 µg/mL (≈ 218 µM) | 50 µg/mL (≈ 109 µM) | 6.25 µg/mL (≈ 13.6 µM) |
| CON=C(C(=O)NC1C(=O)N2C(C(=O)O)=C(CSc3nncs3)CS[C@H]12)C1=CSCCS1 (some centres unmarked) [compound 4, 7-[2-(2,3-dihydro-1,4-dithiin-5-yl)2-methoxyiminoacetamido]-3-(1,3,4-thiadiazol-2-yl)thiomethyl-3-cephem-4-carboxylic acid] | 0.78 µg/mL (≈ 1.47 µM) | 3.13 µg/mL (≈ 5.89 µM) | 6.25 µg/mL (≈ 11.8 µM) | 50 µg/mL (≈ 94 µM) | 0.39 µg/mL (≈ 0.734 µM) |
| CO/N=C(\C(=O)NC1C(=O)N2C(C(=O)O)=C(COC(C)=O)CSC12)C1=CSCCO1 (centres unmarked) [compound 1, 7-[2-(2,3-dihydro-1,4-oxathiin-6-yl)-2-methoxyiminoacetamido]cephalosporanic acid] | 0.78 µg/mL (≈ 1.7 µM) | 0.78 µg/mL (≈ 1.7 µM) | 12.5 µg/mL (≈ 27.3 µM) | 25 µg/mL (≈ 54.6 µM) | 3.13 µg/mL (≈ 6.84 µM) |
| CON=C(C(=O)NC1C(=O)N2C(C(=O)O)=CCS[C@H]12)C1=CSCCS1 (some centres unmarked) [compound 5, 7-[2-(2,3-dihydro-1,4-dithiin-5-yl)-2-methoxyiminoacetamido]-3-cephem-4-carboxylic acid] | – | – | 3.13 µg/mL (≈ 7.8 µM) | 400 µg/mL (≈ 996 µM) | 6.25 µg/mL (≈ 15.6 µM) |
| CON=C(C(=O)NC1C(=O)N2C(C(=O)O)=C(CSc3nnnn3C)CS[C@H]12)C1=CSCCO1 (some centres unmarked) [compound 2, 7-[2-(2,3-dihydro-1,4-oxathiin-6-yl)-2-methoxyiminoacetamido]-3-(1-methyl-1H-tetrazol-5-yl)thiomethyl-3-cephem-4-carboxylic acid] | 0.2 µg/mL (≈ 0.389 µM) | 0.78 µg/mL (≈ 1.52 µM) | 25 µg/mL (≈ 48.7 µM) | 12.5 µg/mL (≈ 24.3 µM) | 3.13 µg/mL (≈ 6.09 µM) |
